Test results: patent publication US20240041042A1, “1-(PYRIDYL)-5-AZINYLPYRAZOLE DERIVATIVES, AND THEIR USE FOR CONTROL OF UNDESIRED PLANT GROWTH” (Bayer Aktiengesellschaft, priority 2020, published 2024)
Where two headings read alike, the source gives them in different places.

Columns and labels:
Format in all cases: in vivo
[1] = system: Setaria viridis (SETVI); test: Pre-emergence herbicidal action against SETVI
Outline: (§1)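 Herbicide applied to soil before seedling emergence, at 600 l/ha spray volume with 0.5% additive and rates up to 320 g/ha. Evaluation: visual percentage effect, about 3 weeks later, greenhouse-grown pots compared with untreated ones.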

[2] = system: Amaranthus retroflexus (AMARE); test: Post-emergence herbicidal action against AMARE
Outline: (§2)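 Doses of 320 g/ha or lower, suffixes a, b and c marking different dosages, were applied post-emergence at the one-leaf stage in 600 l/ha water with 0.5% additive. Damage was assessed visually after about 3 weeks in the greenhouse.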

[3] = system: Lolium rigidum (LOLRI); test: Pre-emergence herbicidal action against LOLRI; conditions: dosage 320 g/ha
Outline: as §1

[4] = system: Alopecurus myosuroides (ALOMY); test: Pre-emergence herbicidal action against ALOMY; conditions: scored visually after about 3 weeks, 100% = plants have died
Outline: as §1

[5] = system: Triticum aestivum (TRZAS); conditions: crop plant compatibility, effect vs untreated controls
Outline: (§3)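 Percent effect on the crop was judged by eye against untreated controls, where 0% means like control and 100% means dead plants. Plants had been sprayed post-emergence at the one-leaf stage and then kept under optimum greenhouse conditions for about 3 weeks.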

[6] = system: Oryza sativa (ORYSA); conditions: crop plant compatibility
Outline: as §3

[7] = system: Amaranthus retroflexus (AMARE); test: Pre-emergence herbicidal action against AMARE; conditions: 320 g/ha, visual scoring after about 3 weeks vs untreated controls
Outline: as §1

[8] = system: Viola tricolor (VIOTR); test: Pre-emergence herbicidal action against VIOTR; conditions: 320 g/ha, Viola tricolor
Outline: as §1

[9] = system: Triticum aestivum (TRZAS); conditions: crop plant compatibility; for Pre-emergence action against TRZAS in %: 80 g/ha, in comparison to untreated controls
Outline: (§4)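 Scoring: visual, % of untreated control, about 3 weeks after a pre-emergence application to the soil surface. Application used WP or EC formulations diluted in water with 0.5% additive at 600 l/ha; dosage levels are marked by suffixes a, b and c.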

[10] = system: Zea mays (ZEAMX); conditions: crop plant compatibility; for Pre-emergence action against ZEAMX in %: in comparison to untreated controls
Outline: as §4

[11] = system: Glycine max (GLXMA); conditions: crop plant compatibility; for Pre-emergence action against GLXMA in %: 80 g/ha, in comparison to untreated controls
Outline: as §4

[12] = system: Brassica napus (BRSNW); conditions: crop plant compatibility, in comparison to untreated controls
Outline: as §4

[13] = system: Oryza sativa (ORYSA); conditions: crop plant compatibility; for Pre-emergence action against ORYSA in %: in comparison to untreated controls
Outline: as §4

[14] = system: Alopecurus myosuroides (ALOMY); test: Post-emergence herbicidal action against ALOMY; conditions: visual rating about 3 weeks after treatment vs untreated controls (100% = plants have died, 0% = like control plants)
Outline: as §2

[15] = system: Avena fatua (AVEFA); test: Post-emergence herbicidal action against AVEFA; conditions: visual rating about 3 weeks after treatment
Outline: as §2

[16] = system: Verconica persica (VERPE); test: Post-emergence herbicidal action against VERPE; conditions: 320 g/ha, VERPE
Outline: as §2

[17] = system: Abutilon theophrasti (ABUTH); test: Post-emergence herbicidal action against ABUTH; conditions: 320 g/ha, visual rating about 3 weeks after treatment vs untreated controls (100% = plants have died, 0% = like control plants)
Outline: as §2

[18] = system: Setaria viridis (SETVI); test: Post-emergence herbicidal action against SETVI
Outline: as §2

[19] = system: Zea mays (ZEAMX)
Outline: as §3

[20] = system: Pharbitis purpurea (PHBPU); test: Post-emergence herbicidal action against PHBPU; conditions: dosage 320 g/ha
Outline: as §2

[21] = system: Viola tricolor (VIOTR); test: Post-emergence herbicidal action against VIOTR; conditions: 320 g/ha
Outline: as §2

[22] = system: Lolium rigidum (LOLRI); test: Post-emergence herbicidal action against LOLRI; conditions: dosage 320 g/ha
Outline: as §2

[23] = system: Matricaria inodora (MATIN); test: Pre-emergence herbicidal action against MATIN; conditions: dosage 320 g/ha
Outline: as §1

[24] = system: Digitaria sanguinalis (DIGSA); test: Post-emergence herbicidal action against DIGSA; conditions: visual rating about 3 weeks after treatment
Outline: as §2

[25] = system: Verconica persica (VERPE); test: Pre-emergence herbicidal action against VERPE; conditions: dosage 320 g/ha
Outline: as §1

[26] = system: Digitaria sanguinalis (DIGSA); test: Pre-emergence herbicidal action against DIGSA
Outline: as §1

[27] = system: Echinochloa crus-galli (ECHCG); test: Post-emergence herbicidal action against ECHCG; conditions: dosage 320 g/ha
Outline: as §2

[28] = system: Echinochloa crus-galli (ECHCG); test: Pre-emergence herbicidal action against ECHCG; conditions: dosage 320 g/ha
Outline: as §1

[29] = system: Avena fatua (AVEFA); test: Pre-emergence herbicidal action against AVEFA; conditions: 320 g/ha, visual scoring after about 3 weeks vs untreated controls
Outline: as §1

[30] = system: Polygonum convolvulus (POLCO); test: Pre-emergence herbicidal action against POLCO
Outline: as §1

[31] = 80 g/ha, visual rating about 3 weeks after treatment vs untreated controls (100% = plants have died, 0% = like control plants)
[32] = 20 g/ha, effect vs untreated controls
[33] = 80 g/ha, effect in comparison to untreated controls
[34] = 320 g/ha, effect in comparison to untreated controls

O=C(O)COc1nn(-c2ccccn2)c(-c2cncc(F)c2)c1C1CC1 [Example I-72]
10%: Post-emergence action against TRZAS in % ([5]; 20 g/ha) | Post-emergence action against ORYSA in % [6, 32] | Pre-emergence action against TRZAS in % [9] | Pre-emergence action against BRSNW in % ([12]; 80 g/ha)
90%: Pre-emergence action against SETVI in % ([1]; dosage 320 g/ha) | Pre-emergence action against AMARE in % [7] | Pre-emergence action against VIOTR in % [8] | Post-emergence action against ALOMY in % ([14]; 80 g/ha)
80%: Post-emergence action against AMARE in % [2, 31]
100%: Pre-emergence action against LOLRI in % [3] | Pre-emergence action against ALOMY ([4]; 320 g/ha)
20%: Post-emergence action against ORYSA in % [6, 33] | Pre-emergence action against ORYSA in % ([13]; 320 g/ha)
0%: Pre-emergence action against ZEAMX in % ([10]; 80 g/ha) | Pre-emergence action against ZEAMX in % ([10]; 320 g/ha) | Pre-emergence action against GLXMA in % [11] | Pre-emergence action against ORYSA in % ([13]; 80 g/ha)

O=C(O)COc1nn(-c2ccnc(Cl)c2)c(-c2ccc(F)nc2)c1Br [III-23]
90%: Post-emergence action against AMARE in % [2, 31] | Post-emergence action against AMARE in % ([2]; 320 g/ha, visual rating about 3 weeks after treatment) | Post-emergence action against VERPE in % [16] | Pre-emergence action against ALOMY ([4]; 320 g/ha) | Pre-emergence action against AMARE in % [7] | Post-emergence action against VIOTR in % [21]
100%: Pre-emergence action against SETVI in % ([1]; dosage 320 g/ha) | Pre-emergence action against LOLRI in % [3] | Post-emergence action against SETVI in % ([18]; dosage 320 g/ha) | Post-emergence action against ALOMY in % ([14]; 320 g/ha)
20%: Post-emergence action against ORYSA in % [6, 34]
0%: Post-emergence action against TRZAS in % ([5]; 80 g/ha) | Post-emergence action against ZEAMX in % ([19]; crop plant compatibility, 80 g/ha, effect vs untreated controls) | Post-emergence action against ORYSA in % [6, 33] | Pre-emergence action against TRZAS in % [9] | Pre-emergence action against ZEAMX in % ([10]; 80 g/ha) | Pre-emergence action against ZEAMX in % ([10]; 320 g/ha) | Pre-emergence action against GLXMA in % [11] | Pre-emergence action against BRSNW in % ([12]; 80 g/ha) | Pre-emergence action against BRSNW in % ([12]; 320 g/ha) | Pre-emergence action against ORYSA in % ([13]; 80 g/ha)
80%: Post-emergence action against AVEFA in % ([15]; 320 g/ha) | Post-emergence action against ABUTH in % [17] | Post-emergence action against SETVI in % ([18]; dosage 80 g/ha) | Post-emergence action against PHBPU in % [20]

COC(=O)[C@@H](C)Oc1nn(-c2ccc(F)cn2)c(-c2ccc(F)nc2)c1Br [Example I-11]
20%: Pre-emergence action against BRSNW in % ([12]; 80 g/ha) | Pre-emergence action against ORYSA in % ([13]; 80 g/ha)
90%: Post-emergence action against AVEFA in % ([15]; 320 g/ha) | Pre-emergence action against SETVI in % ([1]; dosage 80 g/ha) | Pre-emergence action against MATIN in % [23] | Pre-emergence action against ALOMY ([4]; 80 g/ha) | Post-emergence action against DIGSA in % ([24]; 80 g/ha) | Post-emergence action against DIGSA in % ([24]; 320 g/ha) | Pre-emergence action against VERPE in % [25] | Post-emergence action against SETVI in % ([18]; dosage 320 g/ha) | Post-emergence action against PHBPU in % [20] | Pre-emergence action against AVEFA in % [29] | Post-emergence action against ALOMY in % ([14]; 80 g/ha) | Post-emergence action against ALOMY in % ([14]; 320 g/ha) | Pre-emergence action against POLCO in % ([30]; dosage 80 g/ha) | Pre-emergence action against POLCO in % ([30]; dosage 320 g/ha)
80%: Post-emergence action against AVEFA in % ([15]; 80 g/ha) | Post-emergence action against LOLRI in % [22] | Post-emergence action against VERPE in % [16] | Post-emergence action against ECHCG in % [27] | Post-emergence action against SETVI in % ([18]; dosage 80 g/ha) | Pre-emergence action against ECHCG in % [28] | Post-emergence action against VIOTR in % [21]
0%: Post-emergence action against ORYSA in % [6, 32] | Post-emergence action against ORYSA in % [6, 33] | Pre-emergence action against TRZAS [9, 32] | Pre-emergence action against ORYSA [13, 32]
100%: Pre-emergence action against SETVI in % ([1]; dosage 320 g/ha) | Pre-emergence action against LOLRI in % [3] | Pre-emergence action against ALOMY ([4]; 320 g/ha) | Pre-emergence action against DIGSA in % ([26]; 80 g/ha, visual scoring after about 3 weeks vs untreated controls) | Pre-emergence action against DIGSA in % ([26]; dosage 320 g/ha) | Pre-emergence action against AMARE in % [7] | Pre-emergence action against VIOTR in % [8]
10%: Post-emergence action against ZEAMX in % (crop plant compatibility) ([19]; 20 g/ha, ZEAMX, effect in comparison to untreated controls) | Post-emergence action against ORYSA in % [6, 34] | Pre-emergence action against ZEAMX [10, 32] | Pre-emergence action against ZEAMX in % ([10]; 80 g/ha) | Pre-emergence action against GLXMA [11, 32] | Pre-emergence action against BRSNW in % ([12]; 20 g/ha)
